Assays:
A2058 cells = assay: alamarBlue cell viability; conditions: Homo sapiens, A2058, 72 h, read-out: Viability (%) after 72-h treatment
EBC-1 cells = assay: alamarBlue cell viability; conditions: Homo sapiens, EBC-1, 72 h
FADD = assay: Human Apoptosis Array in PANC-1 cells; conditions: PANC-1, 0.5 µM, 72 h
phospho-p53 (S392) = assay: Human Apoptosis Array in PANC-1 cells; conditions: PANC-1, 0.5 µM, 72 h
PANC-1 cells [1] = assay: Annexin-V/7AAD early and late apoptosis flow cytometry; assay type: cell-based, human; conditions: PANC-1, 0.5 µΜ, 72 h
Procedure: For apoptosis measurements, Annexin-V positive/7AAD (7-Aminoactinomycin D) negative, early apoptotic and Annexin-V/ 7AAD double positive, late apoptotic cells were differentiated using a BD FACSCalibur (BD FACSCalibur, Becton-Dickinson, San Jose, CA, USA) flow cytometer[49],[50]. […] After 24, 48, and 72 h treatment, cells were harvested with 300 µL TrypLE (Sigma Ltd. St. Louis, MO, USA). Fresh cell culture medium was then added to stop the effect of TrypLE and the harvested cells were centrifuged for 5 min (300 g). Then, the supernatant was removed, and cells were resuspended in 300 µL of Annexin binding buffer (Sony Biotechnology, Weybridge, UK). For labelling, 3–3 µL of Annexin-V-FITC (Sony Biotechnology, Weybridge, UK) and 7AAD (Sony Biotechnology, Weybridge, UK) were added, followed by 10 min incubation at room temperature in the dark. For flow cytometric analysis (BD FACSCalibur, Becton–Dickinson, San Jose, CA, USA), a minimum of 10^4 cells/sample was measured. Annexin-V was detected using the FL-1 channel (530/30), and 7AAD was detected using the FL-3 channel (670 LP). In each treatment group, 3 parallel samples were analysed. The results were evaluated using Flowing Software 2.5.1 (Turku Centre of Biotechnology, Turku, Finland).

PANC-1 cells [2] = assay: Holographic microscopy morphometry (HoloMonitor M4); assay type: cell-based, human; conditions: PANC-1, 0.5 µM, 72 h
Procedure: To follow the morphometric changes, a holographic transmission microscope (HoloMonitor M4; Phase Holographic Imaging AB, Lund, Sweden) was used, which uses a laser to produce 3D images of the cells[51],[52]. This […] imaging technique allows us to monitor cell morphological changes in real-time. First, the cells were seeded at a concentration of 3.5 × 10^5 cells/flask/4000 µL cell culture medium. […] At least 5 images were taken from each culture dish, taking care to assess different fields of view. These images were evaluated using the microscope software (Hstudio M4). We assessed the average area and the average optical thickness of the cells.

TRAIL = assay: qPCR apoptotic gene expression in PANC-1 cells; conditions: PANC-1, 25 µM, any of the time points (3-48 h)
PANC-1 cells [3] = assay: Cell cycle analysis (PI, flow cytometry)
SMAC = assay: Human Apoptosis Array in PANC-1 cells; conditions: PANC-1, 0.5 µM, 72 h
phospho-p53 (S46) = assay: Human Apoptosis Array in PANC-1 cells; conditions: PANC-1, 0.5 µM, 72 h
XIAP = assay: Human Apoptosis Array in PANC-1 cells; conditions: PANC-1, 0.5 µM, 72 h
cIAP-1 = assay: Human Apoptosis Array in PANC-1 cells; conditions: PANC-1, 0.5 µM, 72 h
cleaved caspase-3 = assay: Human Apoptosis Array in PANC-1 cells; conditions: PANC-1, 0.5 µM, 72 h
MIA PaCa-2 cells [4] = assay: Cell cycle analysis (PI, flow cytometry); conditions: MIA PaCa-2, 0.5 µM, 48 h
HSP60 = assay: Human Apoptosis Array in PANC-1 cells; conditions: PANC-1, 0.5 µM, 72 h
phospho-p53 (S15) = assay: Human Apoptosis Array in PANC-1 cells; conditions: PANC-1, 0.5 µM, 72 h
[5] = cited from earlier work
COLO-205 cells = assay: alamarBlue cell viability; conditions: Homo sapiens, COLO 205, 72 h, read-out: Viability (%) after 72-h treatment
in vitro [6] = conditions: mouse
MIA PaCa-2 cells [7] = assay: alamarBlue cell viability; conditions: Homo sapiens, MIA PaCa-2, 72 h
in vitro [8] = conditions: human
PANC-1 cells [9] = assay: xCELLigence SP impedimetric cell viability; conditions: Homo sapiens, PANC-1, 72 h
caspase-3/7 = assay: CellEvent Caspase-3/7 activity imaging in PANC-1 cells; conditions: PANC-1, 0.5 µM, 72 h, normalised to DMSO control (n = 1)
p53 = assay: qPCR apoptotic gene expression in PANC-1 cells; conditions: PANC-1, 25 µM, 48 h, normalised to DMSO control
[10] = read-out: IC50 values (μM) 72 hours
[11] = read-out: Viability (%) after 72-h treatment

Question: Which viability at 0.5 µM (A2058 cells) does the source give for `Cc1ccccc1CN1C(=O)C2=C(CCN(Cc3ccccc3)C2)N2CCN=C12` [ONC201, reference compound] here?
Answer: 101 ± 1.7%

Question: And the viability at 10 µM (A2058 cells)?
Answer: 73.7 ± 4.5%

Question: What about the viability at 25 µM (A2058 cells) of the same compound?
Answer: 62.1 ± 8.7%

Question: What about the IC50 (EBC-1 cells; [10]) of the same compound?
Answer: 5.72 µM

Question: And the viability at 0.5 µM (EBC-1 cells; [11])?
Answer: 101 ± 1.6%

Question: And the viability at 10 µM (EBC-1 cells; [11])?
Answer: 47.1 ± 2.2%

Question: And the viability at 25 µM (EBC-1 cells; [11])?
Answer: 45.5 ± 2%

Question: And the FADD protein level (FADD)?
Answer: significantly increased

Question: And the “phospho-p53 (S392) protein level” value (phospho-p53 (S392))?
Answer: significantly increased

Question: And the Apoptosis-inducing effect (PANC-1 cells [1])?
Answer: no apoptosis-inducing effect

Question: And the “Effect on cell morphology” value (PANC-1 cells [2])?
Answer: did not affect cell morphology

Question: And the “TRAIL induction (mRNA)” value (TRAIL)?
Answer: not detected

Question: And the “Effect on cell cycle” value (PANC-1 cells [3]; PANC-1, 0.5 µM, 48 h)?
Answer: did not have any influence

Question: What about the “Increase in cell number in the G2/M phase” value (PANC-1 cells [3]; PANC-1, 10 and 25 µM, 72 h) of the same compound?
Answer: 2.1 fold

Question: And the SMAC protein level (SMAC)?
Answer: significantly increased

Question: What about the “phospho-p53 (S46) protein level” value (phospho-p53 (S46)) of the same compound?
Answer: significantly increased

Question: What about the XIAP protein level (XIAP) of the same compound?
Answer: increase

Question: And the cIAP-1 protein level (cIAP-1)?
Answer: increase

Question: And the “cleaved caspase-3 protein level” value (cleaved caspase-3)?
Answer: significantly increased

Question: What about the “Effect on cell cycle” value (MIA PaCa-2 cells [4]) of the same compound?
Answer: did not have any influence

Question: What about the HSP60 protein level (HSP60) of the same compound?
Answer: increase

Question: And the “phospho-p53 (S15) protein level” value (phospho-p53 (S15))?
Answer: significantly increased

Question: And the logP [5]?
Answer: 2.3

Question: What about the viability at 0.5 µM (COLO-205 cells) of the same compound?
Answer: 97 ± 2.5%

Question: And the viability at 10 µM (COLO-205 cells)?
Answer: 69.7 ± 2.4%

Question: And the viability at 25 µM (COLO-205 cells)?
Answer: 71 ± 0.7%

Question: What about the viability at 72 h, 0.5 µM (in vitro [6]) of the same compound?
Answer: 99.4 ± 1.8%

Question: And the viability at 72 h, 10 µM (in vitro [6])?
Answer: 89.2 ± 6.3%

Question: And the viability at 72 h, 25 µM (in vitro [6])?
Answer: 89 ± 5.6%

Question: And the IC50 (MIA PaCa-2 cells [7]; [10])?
Answer: 1.12 µM

Question: And the viability at 0.5 µM (MIA PaCa-2 cells [7]; [11])?
Answer: 77.6 ± 2.3%

Question: What about the viability at 10 µM (MIA PaCa-2 cells [7]; [11]) of the same compound?
Answer: 44.6 ± 2%

Question: What about the viability at 25 µM (MIA PaCa-2 cells [7]; [11]) of the same compound?
Answer: 55 ± 1.6%

Question: And the viability at 72 h, 0.37 µM (in vitro [8])?
Answer: 115 ± 1.4%

Question: And the viability at 72 h, 8.6 µM (in vitro [8])?
Answer: 88.3 ± 7.4%

Question: And the viability at 72 h, 25 µM (in vitro [8])?
Answer: 74.9 ± 8.6%

Question: And the IC50 (PANC-1 cells [9]; [10])?
Answer: 6.1 µM

Question: What about the viability at 0.5 µM (PANC-1 cells [9]; [11]) of the same compound?
Answer: 105 ± 5.2%

Question: And the viability at 10 µM (PANC-1 cells [9]; [11])?
Answer: 16 ± 2.4%

Question: What about the viability at 25 µM (PANC-1 cells [9]; [11]) of the same compound?
Answer: 10.2 ± 2.2%

Question: And the “Number of caspase-3/7 active cells, increase” value (caspase-3/7)?
Answer: 6.6 fold

Question: And the “p53 mRNA expression” value (p53)?
Answer: 3.3 fold
